Assay results reported in US20250320205A1, “STAT6 DEGRADERS” (Gilead Sciences, Inc., priority 2024, published 2025).

biological target: T1, STAT6 (Homo sapiens, UniProt P42226); test: STAT6 Degrader Assay (HiBiT based, HeLa LgBiT clone 4.14 cells); assay type: cell-based; conditions: HeLa; maximal STAT6 degradation
T1 construct: These cells express endogenous STAT6; host or cells: HeLa LgBiT clone 4.14 (CRISPR knock-in of HiBiT into the endogenous STAT6 gene)
T1 sequence (P42226 1-847): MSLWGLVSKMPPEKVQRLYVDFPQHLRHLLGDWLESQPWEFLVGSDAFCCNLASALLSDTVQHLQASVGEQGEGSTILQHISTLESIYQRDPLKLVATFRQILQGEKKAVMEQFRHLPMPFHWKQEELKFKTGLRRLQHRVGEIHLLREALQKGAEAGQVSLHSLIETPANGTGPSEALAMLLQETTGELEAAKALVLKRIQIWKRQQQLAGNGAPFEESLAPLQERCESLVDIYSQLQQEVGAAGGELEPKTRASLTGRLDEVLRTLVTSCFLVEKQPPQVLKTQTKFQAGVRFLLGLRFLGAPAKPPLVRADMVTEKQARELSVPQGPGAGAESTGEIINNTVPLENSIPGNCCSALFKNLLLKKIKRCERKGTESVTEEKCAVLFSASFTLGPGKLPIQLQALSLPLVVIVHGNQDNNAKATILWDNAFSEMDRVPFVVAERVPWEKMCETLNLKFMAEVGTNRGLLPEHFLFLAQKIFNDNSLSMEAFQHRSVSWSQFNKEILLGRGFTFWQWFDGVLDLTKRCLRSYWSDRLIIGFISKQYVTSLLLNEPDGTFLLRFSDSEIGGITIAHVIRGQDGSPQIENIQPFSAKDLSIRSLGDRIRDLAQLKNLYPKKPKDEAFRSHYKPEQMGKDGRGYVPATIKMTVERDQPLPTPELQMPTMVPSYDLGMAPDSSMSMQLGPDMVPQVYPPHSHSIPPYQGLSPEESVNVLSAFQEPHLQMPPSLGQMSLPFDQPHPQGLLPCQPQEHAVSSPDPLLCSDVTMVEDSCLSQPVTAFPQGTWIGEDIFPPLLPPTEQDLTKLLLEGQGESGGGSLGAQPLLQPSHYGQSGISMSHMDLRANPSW
Method: This was a HiBit based assay. A HeLa cell line stably transfected with a small protein, LgBit (Large Bit) was obtained from Promega. These cells express endogenous STAT6. A small 11 amino acid gene sequence (HiBiT) was inserted in the STAT6 gene using CRISPR technology. Once STAT6 protein is expressed in the cells, the HiBiT sequence will bind the LgBit in the cells resulting in a functional NanoBiT protein, giving a luminescent tag to STAT6. Single cell clones were prepared and the clone 4.14 was selected for the assay based on that clone showing high luminescence, high STAT6 phosphorylation upon stimulation with IL-4, and inhibition of luminescence when cells were treated with STAT6 siRNA. HeLa LgBiT clone 4.14 cells were suspended in DMEM with 10% FCS, 1% Pen/Strep, Na-pyrovate and Hygromycin B, at a concentration of 1.25*105 cells pr mL. 5000 cells were added pr well of a 384 well plate and 20 nL of compound was added by Echo® liquid handler. NN6394A (terfenadine, a toxic compound) was added to control wells at 50 μM concentration to establish the assay window. In these wells the cells are dead which equals 100% degradation of STAT6. After 4-24 h of incubation at 37° C. under 5% CO2/95% air, 5 μL substrate (Nano-GLO®) was added to the wells and the plates were centrifuged and incubated for 0.5 h. The luminescence in the wells as a measure of non-degraded STAT6 was measured in a plate reader (BMG Pherastar FSX). The measured DC50 (in nM) was determined.

Emax [%]	Structure (SMILES)
50 to 60	C[C@@H](c1cc2c(-n3cc(F)c4c(c3=O)CCN4)ccnc2n1C)N1CC=C(c2c(F)cc(C(=O)N3CCC(CN4CCN(c5ccc(NC6CCC(=O)NC6=O)cc5F)CC4)CC3)cc2F)CC1 (stereo partly drawn) [Example 2g131, 3-((4-(4-((1-(3,5-difluoro-4-(1-((S)-1-(4-(7-fluoro-4-oxo-1,2,3,4-tetrahydro-5H-pyrrolo [3,2-c]pyridin-5-yl)-1-methyl-1H-pyrrolo[2,3-b]pyridin-2-yl)ethyl)-1,2,3,6-tetrahydro-pyridin-4-yl)benzoyl)piper-idin-4-yl)methyl)piperazin-1-yl)-3-fluorophenyl)amino)-piperidine-2,6-dione]
20 to 30	CNc1ccn(-c2ccnc3c2cc([C@H](C)N2CC=C(c4c(C)cc(C(=O)N5CCC(CN6CCN(c7ncc(NC8CCC(=O)NC8=O)cc7F)CC6)CC5)cc4F)CC2)n3C)c(=O)c1 (stereo partly drawn) [Example 2g13, 3-((5-fluoro-6-(4-((1-(3-fluoro-5-methyl-4-(1-((S)-1-(1-methyl-4-(4-(methyl-amino)-2-oxopyridin-1(2H)-yl)-1H-pyrrolo[2,3-b]pyridin-2-yl)ethyl)-1,2,3,6-tetrahydro-pyridin-4-yl)benzoyl)piperi-din-4-yl)methyl)piperazin-1-yl)pyridin-3-yl)amino)piperi-dine-2,6-dione]
30 to 40	COc1cc(N2CCN(CC3CCN(C(=O)c4cc(C)c(C5=CCN([C@@H](C)c6cc7c(-n8cc(F)c9c(c8=O)CCN9)ccnc7n6C)CC5)c(F)c4)CC3)CC2)ccc1NC1CCC(=O)NC1=O (stereo partly drawn) [Example 2g130, 3-((4-(4-((1-(3-fluoro-4-(1-((S)-1-(4-(7-fluoro-4-oxo-1,2,3,4-tetrahydro-5H-pyr-rolo-[3,2-c]pyridin-5-yl)-1-methyl-1H-pyrrolo[2,3-b]pyridin-2-yl)ethyl)-1,2,3,6-tetrahydropyridin-4-yl)-5-methylbenzoyl)piperidin-4-yl)methyl)piperazin-1-yl)-2-methoxyphenyl)amino)piper-idine-2,6-dione]
< 20	Cc1cc(C(=O)N2CCC(CN3CCN(c4ncc(NC5CCC(=O)NC5=O)cc4F)CC3)CC2)cc(F)c1C1=CCN([C@@H](C)c2cc3c(-n4ccc5c(c4=O)CCN5)ccnc3n2C)CC1 (stereo partly drawn) [Example 2g49, 3-((5-fluoro-6-(4-((1-(3-fluoro-5-methyl-4-(1-((S)-1-(1-methyl-4-(4-oxo-1,2,3,4-tetrahydro-5H-pyrrolo[3,2-c]pyridin-5-yl)-1H-pyrrolo [2,3-b]pyridin-2-yl)ethyl)-1,2,3,6-tetrahydropyridin-4-yl)benzoyl)piperidin-4-yl)-methyl)piperazin-1-yl)-pyridin-3-yl)amino)piperi-dine-2,6-dione]

same assay, conditions: geometric mean across assay runs and compound batches; DC50 provided for test compounds with >80% Emax; read-out: STAT6 degradation DC50

Structure (SMILES)	DC50 [nM]
Cc1cc(C(=O)N2CCC(CN3CCN(c4ccc(NC5CCC(=O)NC5=O)cc4F)CC3)CC2)cc(F)c1C1CCN(Cc2cc3c(-n4ccc5c(c4=O)CCN5)ccnc3n2C)CC1 (centres unmarked) [Example 2g36, 3-((3-fluoro-4-(4-((1-(3-fluoro-5-methyl-4-(1-((1-methyl-4-(4-oxo-1,2,3,4-tetrahydro-5H-pyrrolo[3,2-c]pyridin-5-yl)-1H-pyrrolo[2,3-b]pyridin-2-yl)methyl)piperi-din-4-yl)benzoyl)piperidin-4-yl)methyl)piperazin-1-yl)-phenyl)amino)piperidine-2,6-dione]	35.7
CNc1ccn(-c2ccnc3c2cc([C@H](C)N2CCC(c4c(C)cc(C(=O)N5CCC(CN6CCN(c7ccc(N[C@H]8CCC(=O)NC8=O)cc7F)CC6)CC5)cc4F)CC2)n3C)c(=O)c1 (single isomer, unassigned) [Example 2g45]	10.7
CNc1ccn(-c2ccnc3c2cc([C@H](C)N2CC=C(c4c(C)cc(C(=O)N5CCC(CN6CCN(c7ncc(N[C@@H]8CCC(=O)NC8=O)cc7F)C[C@@H]6C)CC5)cc4F)CC2)n3C)c(=O)c1 (single isomer, unassigned) [Example 2g96]	14
CNc1ccn(-c2ccnc3c2cc(CN2CCC(c4c(C)cc(C(=O)N5CCC(CN6CCN(c7ccc(N[C@@H]8CCC(=O)NC8=O)cc7F)CC6)CC5)cc4F)CC2)n3C)c(=O)c1 (single isomer, unassigned) [Example 2g61]	14.8
CNc1cc(=O)n(-c2ccnc3c2cc(CN2CCC(c4c(F)cc(C(=O)N5CCC(CN6CCN(c7ccc(N[C@H]8CCC(=O)NC8=O)cc7F)CC6)CC5)cc4F)CC2)n3C)cc1F (single isomer, unassigned) [Example 2g34]	15.1

Other lines, results leading:

DC50 [nM]	Structure (SMILES)
5	CNc1ccn(-c2ccnc3c2cc([C@H](C)N2CC=C(c4c(C)cc(C(=O)N5CCC(CN6CCN(c7ccc(N[C@H]8CCC(=O)NC8=O)cc7F)CC6)CC5)cc4F)CC2)n3C)c(=O)c1 (single isomer, unassigned) [Example 2g39]
5.9	CNc1cc(=O)n(-c2ccnc3c2cc([C@H](C)N2CC=C(c4c(C)cc(C(=O)N5CCC(CN6CCN(c7ccc(N[C@H]8CCC(=O)NC8=O)cc7F)CC6)CC5)cc4F)CC2)n3C)cc1F (single isomer, unassigned) [Example 2g92]
0.2	CNc1ccn(-c2ccnc3c2cc([C@H](C)N2CC=C(c4c(C)cc(C(=O)N5CCn6nc(CN7CCC(c8ccc(N[C@H]9CCC(=O)NC9=O)cc8F)CC7)cc6C5)cc4F)CC2)n3C)c(=O)c1 (single isomer, unassigned) [Example 2g16]
3.1	CNc1ccn(-c2ccnc3c2cc([C@H](C)N2CC=C(c4c(C)cc(C(=O)N5CCC(CN6CCN(c7ccc(NC8CCC(=O)NC8=O)cc7F)C[C@H]6C)CC5)cc4F)CC2)n3C)c(=O)c1 (stereo partly drawn) [Example 2g46, 3-((3-fluoro-4-((R)-4-((1-(3-fluoro-5-methyl-4-(1-((S)-1-(1-methyl-4-(4-(methyl-amino)-2-oxopyridin-1(2H)-yl)-1H-pyrrolo[2,3-b]pyridin-2-yl)ethyl)-1,2,3,6-tetrahydro-pyridin-4-yl)benzoyl)piperi-din-4-yl)methyl)-3-methyl-piperazin-1-yl)phenyl)amino)-piperidine-2,6-dione]
3.3	Cc1cc(C(=O)N2CCC(CN3CCN(c4ccc(NC5CCC(=O)NC5=O)cc4F)C[C@H]3C)CC2)cc(F)c1C1=CCN([C@@H](C)c2cc3c(-n4ccc5c(c4=O)CCN5)ccnc3n2C)CC1 (stereo partly drawn) [Example 2g22, 3-((3-fluoro-4-((R)-4-((1-(3-fluoro-5-methyl-4-(1-((S)-1-(1-methyl-4-(4-oxo-1,2,3,4-tetrahydro-5H-pyrrolo[3,2-c]pyridin-5-yl)-1H-pyrrolo[2,3-b]pyridin-2-yl)ethyl)-1,2,3,6-tetrahydro-pyridin-4-yl)-benzoyl)piperidin-4-yl)meth-yl)-3-methylpiperazin-1-yl)-phenyl)amino)piperidine-2,6-dione]
7.66	CNc1ccn(-c2ccnc3c2cc([C@H](C)N2CC=C(c4c(F)cc(C(=O)N5CCC(CN6CCN(c7ccc(N[C@H]8CCC(=O)NC8=O)cc7F)CC6)CC5)cc4F)CC2)n3C)c(=O)c1 (single isomer, unassigned) [Example 2g106]
3	Cc1cc(C(=O)N2CCC(CN3CCN(c4ccc(N[C@@H]5CCC(=O)NC5=O)cc4F)C[C@H]3C)CC2)cc(F)c1C1=CCN([C@@H](C)c2cc3c(-n4ccc5c(c4=O)CCN5)ccnc3n2C)CC1 (single isomer, unassigned) [Example 2g24]
1.8	CNc1ccn(-c2ccnc3c2cc([C@H](C)N2CC=C(c4c(C)cc(C(=O)N5CCC(CN6CCN(c7ccc(NC8CCC(=O)NC8=O)cc7F)CC6)CC5)cc4F)CC2)n3C)c(=O)c1 (stereo partly drawn) [Example 2g37, 3-((3-fluoro-4-(4-((1-(3-fluoro-5-methyl-4-(1-((S)-1-(1-methyl-4-(4-(methyl-amino)-2-oxopyridin-1(2H)-yl)-1H-pyrrolo[2,3-b]pyridin-2-yl)ethyl)-1,2,3,6-tetrahydro-pyridin-4-yl)benzoyl)piperi-din-4-yl)methyl)piperazin-1-yl)phenyl)amino)piperidine-2,6-dione]
